Experiment: The compound was tested for the affinity on sigma 1 receptor using [3H]- pentazocine as radioligand

SMILES | Ki [nM]
CCCCC(=O)c1ccc2c(c1)sc(=O)n2CCN(C)C [3-(2-Dimethylamino-ethyl)-6-pentanoyl-3H-benzothiazol-2-one] | 628
CN(C)CCn1c(=O)oc2cc(C(=O)c3ccccc3)ccc21 [6-Benzoyl-3-(2-dimethylamino-ethyl)-3H-benzooxazol-2-one] | 365
CCC(=O)c1ccc2c(c1)sc(=O)n2CCN1CCCC1 [6-Propionyl-3-(2-pyrrolidin-1-yl-ethyl)-3H-benzothiazol-2-one] | 571

Results, then the molecule that gave them:

Ki [nM] | SMILES
72 | CCC(=O)c1ccc2c(c1)oc(=O)n2CCN1CCCCC1 [3-(2-Piperidin-1-yl-ethyl)-6-propionyl-3H-benzooxazol-2-one]
47 | CCC(=O)c1ccc2c(c1)sc(=O)n2CCN1CCCCC1 [3-(2-Piperidin-1-yl-ethyl)-6-propionyl-3H-benzothiazol-2-one]
0.6 | CCCc1ccc2c(c1)sc(=O)n2CCN1CCCCC1 [3-(2-Piperidin-1-yl-ethyl)-6-propyl-3H-benzothiazol-2-one]
54 | O=C(c1ccccc1)c1ccc2c(c1)sc(=O)n2CCN1CCCC1 [6-Benzoyl-3-(2-pyrrolidin-1-yl-ethyl)-3H-benzothiazol-2-one]
72 | O=c1oc2cc(Cc3ccccc3)ccc2n1CCN1CCOCC1 [6-Benzyl-3-(2-morpholin-4-yl-ethyl)-3H-benzooxazol-2-one]

Experiment: as above
Remark: another data set of the same source

Ki [nM] | SMILES
63 | CCC(=O)c1ccc2c(c1)sc(=O)n2C(=O)CC [3,6-Dipropionyl-3H-benzothiazol-2-one]

From BindingDB's records for doi:10.1021/jm970682+ (University of Louvain, 1998)
